Source: ChEMBL document CHEMBL3046347, “Synthesis and biological evaluation of novel curcumin analogues as anti-inflammatory, anti-cancer and anti-oxidant agents” (Med Chem Res, 2012)

Columns and labels:
[1] = molecular target: T1, Prostaglandin G/H synthase 1 (Ovis aries) (UniProt P05979); settings: at 1 µM;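 further: colorimetric read-out, measured after 5 min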
T1 sequence (whole entry): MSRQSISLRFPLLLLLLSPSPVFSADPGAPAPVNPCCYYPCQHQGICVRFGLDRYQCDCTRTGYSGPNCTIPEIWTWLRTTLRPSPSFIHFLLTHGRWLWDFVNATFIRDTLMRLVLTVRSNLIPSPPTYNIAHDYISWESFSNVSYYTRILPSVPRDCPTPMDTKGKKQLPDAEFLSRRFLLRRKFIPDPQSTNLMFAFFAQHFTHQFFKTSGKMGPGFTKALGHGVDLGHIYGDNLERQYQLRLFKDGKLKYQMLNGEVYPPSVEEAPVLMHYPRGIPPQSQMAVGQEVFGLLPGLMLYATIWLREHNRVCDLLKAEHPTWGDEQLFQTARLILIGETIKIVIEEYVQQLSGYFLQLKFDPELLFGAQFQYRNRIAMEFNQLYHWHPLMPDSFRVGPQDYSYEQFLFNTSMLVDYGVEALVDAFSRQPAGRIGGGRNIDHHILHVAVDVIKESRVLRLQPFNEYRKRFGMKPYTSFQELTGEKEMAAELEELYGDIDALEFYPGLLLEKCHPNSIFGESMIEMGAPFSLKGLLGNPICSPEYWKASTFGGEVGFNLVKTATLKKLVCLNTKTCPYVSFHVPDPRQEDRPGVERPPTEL
Description: Inhibition of Ovis aries (sheep) COX1 at 1 uM after 5 min by colorimetric analysis

[2] = Cytotoxicity against Homo sapiens (human) H460 cells at 10 uM after 48 hr by propidium iodide-based fluorometric assay; format: functional; settings: NCI-H460, 48 h, read-out: GI
[3] = test system: HCT-116; assay: Cytotoxicity against Homo sapiens (human) HCT116 cells at 10 uM after 48 hr by propidium iodide-based fluorometric assay; format: functional; settings: HCT-116, 48 h, read-out: GI
[4] = test system: THP-1; assay: Anti-inflammatory activity in Homo sapiens (human) THP1 cells assessed as inhibition of LPS-induced IL6 production at 10 uM incubated for 30 min prior to LPS-challenge measured after 24 hr by ELISA; format: functional
[5] = test system: ACHN; assay: Cytotoxicity against Homo sapiens (human) ACHN cells at 10 uM after 48 hr by propidium iodide-based fluorometric assay; format: functional; settings: read-out: GI
[6] = molecular target: T2, Beta-glucuronidase (Homo sapiens) (UniProt P08236); assay: Inhibition of beta-glucuronidase (unknown origin) using p-nitrophenyl-beta-D-glucopyranosiduronic acid as substrate at 1 uM after 30 min by spectrophotometric analysis
T2 sequence (whole entry): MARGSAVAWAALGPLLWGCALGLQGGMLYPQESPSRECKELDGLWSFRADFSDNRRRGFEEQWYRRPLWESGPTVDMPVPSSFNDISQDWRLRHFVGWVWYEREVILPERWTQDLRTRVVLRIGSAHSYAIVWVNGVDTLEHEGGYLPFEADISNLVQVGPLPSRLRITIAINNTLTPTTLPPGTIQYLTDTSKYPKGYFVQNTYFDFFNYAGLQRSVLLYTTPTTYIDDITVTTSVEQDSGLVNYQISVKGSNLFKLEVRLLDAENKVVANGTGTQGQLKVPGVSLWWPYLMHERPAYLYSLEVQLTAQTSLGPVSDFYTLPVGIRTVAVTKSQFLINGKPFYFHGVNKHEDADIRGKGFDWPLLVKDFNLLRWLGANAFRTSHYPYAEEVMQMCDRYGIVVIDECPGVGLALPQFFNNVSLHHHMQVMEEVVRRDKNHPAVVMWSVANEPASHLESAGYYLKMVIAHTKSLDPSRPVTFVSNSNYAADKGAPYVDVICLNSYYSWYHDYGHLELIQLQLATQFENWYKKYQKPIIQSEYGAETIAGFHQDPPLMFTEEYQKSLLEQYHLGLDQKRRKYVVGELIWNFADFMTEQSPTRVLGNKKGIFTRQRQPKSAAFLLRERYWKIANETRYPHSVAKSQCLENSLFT

[7] = molecular target: T3, Prostaglandin G/H synthase 2 (Ovis aries) (UniProt P79208); assay: Inhibition of Ovis aries (sheep) COX2 at 1 uM after 5 min by colorimetric analysis
T3 sequence (whole entry): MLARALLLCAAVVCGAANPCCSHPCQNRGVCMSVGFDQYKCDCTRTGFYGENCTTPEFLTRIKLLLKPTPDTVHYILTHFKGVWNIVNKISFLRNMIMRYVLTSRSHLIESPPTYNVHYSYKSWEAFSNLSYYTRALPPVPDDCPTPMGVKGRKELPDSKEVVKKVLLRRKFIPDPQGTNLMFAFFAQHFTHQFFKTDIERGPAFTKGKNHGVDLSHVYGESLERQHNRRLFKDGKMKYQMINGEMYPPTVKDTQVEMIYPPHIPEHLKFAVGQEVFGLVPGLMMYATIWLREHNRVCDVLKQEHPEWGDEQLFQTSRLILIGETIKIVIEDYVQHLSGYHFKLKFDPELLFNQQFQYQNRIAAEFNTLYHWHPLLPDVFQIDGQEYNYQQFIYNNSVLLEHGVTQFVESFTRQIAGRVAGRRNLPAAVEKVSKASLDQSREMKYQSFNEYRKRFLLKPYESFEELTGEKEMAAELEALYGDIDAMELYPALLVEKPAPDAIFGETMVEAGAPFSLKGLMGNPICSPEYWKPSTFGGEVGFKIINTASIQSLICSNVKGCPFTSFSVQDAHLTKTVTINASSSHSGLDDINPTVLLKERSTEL

[8] = Antioxidant activity assessed as reduction of potassium ferricynide at 1 uM after 10 min by spectrophotometric analysis; format: functional; parameters: scale not given: the % may be the effect or the level left
[9] = test system: THP-1; assay: Anti-inflammatory activity in Homo sapiens (human) THP1 cells assessed as inhibition of LPS-induced TNFalpha production at 10 uM incubated for 30 min prior to LPS-challenge measured after 24 hr by ELISA; format: functional
[10] = Cytotoxicity against Homo sapiens (human) […] cells at 10 uM; format: cell-based
[11] = molecular target: Trypsin (Homo sapiens) (UniProt P07477+P07478+P35030); assay: Inhibition of trypsin (unknown origin) using bovine serum albumin as substrate at 1 uM incubated for 20 min prior to substrate addition measured after 25 min by Lowry method; format: protein assay
[12] = Antioxidant activity assessed as hydroxyl radical scavenging activity at 1 uM by spectrophotometric analysis; format: functional
[13] = test system: PANC-1; assay: Cytotoxicity against Homo sapiens (human) PANC1 cells at 10 uM after 48 hr by propidium iodide-based fluorometric assay; format: functional; settings: PANC-1, 48 h, read-out: GI
[14] = test system: Calu-1; assay: Cytotoxicity against Homo sapiens (human) Calu1 cells at 10 uM after 48 hr by propidium iodide-based fluorometric assay; format: functional; settings: Calu-1, 48 h, read-out: GI
[15] = test system: Radical scavenging activity; assay: Antioxidant activity assessed as DPPH radical scavenging activity at 1 uM after 20 min by spectrophotometric analysis; format: functional

For `COc1cc(OC)c(/C=C/C(=O)c2cccc(NC(=O)c3cccc(C)c3)c2)c(OC)c1Br`, the inhibition [1] was 24.2%, the inhibition of growth at 10 µM [2] was 32% and the inhibition of growth at 10 µM [3] was 30%. The inhibition at 10 µM [4] was 97%, the inhibition of growth at 10 µM [5] was 28% and the inhibition [6] was 66.9%. The inhibition [7] was 48.2%, the Activity [8] was 29.2% and the inhibition at 10 µM [9] was 87%. The Activity [10] was 56%, the inhibition [11] was 51.6% and the Activity [12] was 38.3%. It also gave an inhibition of growth at 10 µM [13] of 23%, an inhibition of growth at 10 µM [14] of 22% and an Activity [15] of 36.7%.

With `COc1cc(OC)c(/C=C/C(=O)c2cccc(NC(=O)c3ccccc3F)c2)c(OC)c1Br` the inhibition [1] was 44.8%, the inhibition of growth at 10 µM [2] was 52% and the inhibition of growth at 10 µM [3] was 66%. For the same compound, the inhibition at 10 µM [4] was 96%, the inhibition of growth at 10 µM [5] was 66% and the inhibition [6] was 74.2%. It also gave an inhibition [7] of 79.3%, an Activity [8] of 40.5% and an inhibition at 10 µM [9] of 84%. It also gave an Activity [10] of 56%, an inhibition [11] of 64.8% and an Activity [12] of 43.2%. The inhibition of growth at 10 µM [13] was 68%, the inhibition of growth at 10 µM [14] was 67% and the Activity [15] was 42.9%.

In the case of `COc1cc(OC)c(/C=C/C(=O)c2cccc(NC(=O)c3cccc(F)c3)c2)c(OC)c1Br`, the inhibition [1] is reported as 59.8%, the inhibition of growth at 10 µM [2] is reported as 33% and the inhibition of growth at 10 µM [3] is reported as 26%. It also gave an inhibition at 10 µM [4] of 93%, an inhibition of growth at 10 µM [5] of 33% and an inhibition [6] of 72.9%. The inhibition [7] was 82.5%, the Activity [8] was 39.9% and the inhibition at 10 µM [9] was 78%. The Activity [10] was 51%, the inhibition [11] was 63.5% and the Activity [12] was 32.2%. The inhibition of growth at 10 µM [13] was 32%, the inhibition of growth at 10 µM [14] was 31% and the Activity [15] was 43.3%.

Compound `COc1cc(OC)c(/C=C/C(=O)c2cccc(NC(=O)c3cccs3)c2)c(OC)c1Br` has an inhibition [1] of 27.8%, an inhibition of growth at 10 µM [2] of 72% and an inhibition of growth at 10 µM [3] of 98%. It also gave an inhibition at 10 µM [4] of 96%, an inhibition of growth at 10 µM [5] of 82% and an inhibition [6] of 44.7%. For the same compound, the inhibition [7] was 55.4%, the Activity [8] was 32.7% and the inhibition at 10 µM [9] was 80%. For the same compound, the Activity [10] was 53%, the inhibition [11] was 41.4% and the Activity [12] was 49.3%. The inhibition of growth at 10 µM [13] was 89%, the inhibition of growth at 10 µM [14] was 85% and the Activity [15] was 35.3%.

In the case of `COc1cc(OC)c(/C=C/C(=O)c2cccc(NC(=O)c3ccccc3C)c2)c(OC)c1Br`, the inhibition [1] is reported as 31.5%, the inhibition of growth at 10 µM [2] is reported as 32% and the inhibition of growth at 10 µM [3] is reported as 21%. The inhibition at 10 µM [4] was 95%, the inhibition of growth at 10 µM [5] was 15% and the inhibition [6] was 29.7%. For the same compound, the inhibition [7] was 43.7%, the Activity [8] was 22.3% and the inhibition at 10 µM [9] was 72%. For the same compound, the Activity [10] was 54%, the inhibition [11] was 35.5% and the Activity [12] was 34.6%. The inhibition of growth at 10 µM [13] was 3%, the inhibition of growth at 10 µM [14] was 0% and the Activity [15] was 31.1%.

Work on `COc1cc(OC)c(/C=C/C(=O)c2cccc(NC(=O)c3cccc(Cl)c3)c2)c(OC)c1Br` yielded an inhibition [1] of 53.9%, an inhibition of growth at 10 µM [2] of 17% and an inhibition of growth at 10 µM [3] of 28%. It also gave an inhibition at 10 µM [4] of 64%, an inhibition of growth at 10 µM [5] of 26% and an inhibition [6] of 78.2%. For the same compound, the inhibition [7] was 86.5%, the Activity [8] was 38.4% and the inhibition at 10 µM [9] was 0%. It also gave an Activity [10] of 25%, an inhibition [11] of 78.1% and an inhibition of growth at 10 µM [13] of 35%. The inhibition of growth at 10 µM [14] was 26% and the Activity [15] was 45.3%.

In the case of `O=C(O)c1cc(O)c(O)c(O)c1`, the Activity [15] is reported as 92.4%.

Compound `COc1cc(OC)c(/C=C/C(=O)c2cccc(NC(=O)c3cccc(C(F)(F)F)c3)c2)c(OC)c1Br` has an inhibition [1] of 48.9%, an inhibition of growth at 10 µM [2] of 4% and an inhibition of growth at 10 µM [3] of 6%. For the same compound, the inhibition at 10 µM [4] was 97%, the inhibition of growth at 10 µM [5] was 15% and the inhibition [6] was 81.4%. For the same compound, the inhibition [7] was 89.2%, the Activity [8] was 40.7% and the inhibition at 10 µM [9] was 85%. For the same compound, the Activity [10] was 65%, the inhibition [11] was 65.5% and the inhibition of growth at 10 µM [13] was 0%. For the same compound, the inhibition of growth at 10 µM [14] was 0% and the Activity [15] was 45.7%.

`CC(=O)Oc1ccccc1C(=O)O` showed an inhibition [7] of 36.9%.

With `O=C(O)c1ccccc1O` the inhibition [6] was 24.8% and the inhibition [11] was 85%.
